# From article PMC12717519, “Chemical clues to infection: A pilot study on the differential secondary metabolite production during the life cycle of selected Cordyceps species” (IMA Fungus, 2025)
# pIC50: −log10 of the molar value. Like-named read-outs stand apart in the source and are kept apart here.
# Assays:
# [1] = test system: Bacillus subtilis (DSM 10); assay: microbe, parasite or virus in culture; format: cell-based; conditions: serial dilution in 96-well microtiter plates, tested up to 67 µg/mL
# Experimental: (§1) Serial dilution assays were performed in 96-well microtiter plates to determine the minimum inhibitory concentrations (MICs) against a panel of yeasts, filamentous fungi, and bacteria, as well as the half-maximal inhibitory concentrations (IC50) against human cell lines, following our previously described protocol ([Charria-Girón et al. 2023]).
# [2] = test system: Staphylococcus aureus (DSM 346); assay: microbe, parasite or virus in culture; format: cell-based
# Experimental: as §1
# [3] = test system: Candida albicans (DSM 1665); assay: MIC serial dilution assay; format: cell-based; conditions: serial dilution in 96-well microtiter plates, tested up to 67 µg/mL
# Experimental: as §1
# [4] = test system: Escherichia coli (DSM 1116); assay: MIC serial dilution assay; format: cell-based; conditions: serial dilution in 96-well microtiter plates, tested up to 67 µg/mL
# Experimental: as §1
# [5] = test system: Mucor hiemalis (DSM 2656); assay: MIC serial dilution assay; format: cell-based; conditions: serial dilution in 96-well microtiter plates, tested up to 67 µg/mL
# Experimental: as §1
# [6] = test system: Mycobacterium smegmatis (ATCC 700084); assay: MIC serial dilution assay; format: cell-based; conditions: serial dilution in 96-well microtiter plates, tested up to 67 µg/mL
# Experimental: as §1
# [7] = test system: Pseudomonas aeruginosa (PA14); assay: MIC serial dilution assay; format: cell-based; conditions: serial dilution in 96-well microtiter plates, tested up to 67 µg/mL
# Experimental: as §1
# Mouse fibroblast (L929) = assay: Cytotoxicity assay; format: cell-based; conditions: serial dilution in 96-well plates
# [8] = test system: Human endocervival adenocarcinoma (KB3.1); assay: cells; format: cell-based
# Experimental: as §1
# [9] = Solubility in deuterated solvents (for NMR); format: physicochemical; conditions: observation during NMR sample preparation; deuterated solvents / deuterated DMSO
# [10] = test system: beet armyworm (Spodoptera exigua, Lepidoptera); assay: Virulence of purified compounds against beet armyworm larvae (injection); format: in vivo; conditions: larvae injected with 0.5 µL of DMSO dilutions (40 to 0.625 µg/mL), n = 6 per concentration, 25 °C
# Experimental: To evaluate the virulence of purified compounds against beet armyworm larvae, beauveriolides I (4) and M (5) were selected based on availability, and cytochalasin D served as a positive control. […] Larvae were injected with 0.5 µL of each dilution (n = 6 per concentration), maintained at 25 °C for one week, and monitored daily to assess mortality. Saline ([…]) and DMSO served as negative controls.
# For proof of concept, beauveriolides I (4) and M (5) were selected based on availability and tested following the spore-suspension protocol but considering only total mortality, with cytochalasin D, a mycotoxin commonly produced by Metarhizium spp., used as a positive control ([Kobmoo et al. 2024]).
# [11] = test system: Acinetobacter baumannii (DSM 30008); assay: MIC serial dilution assay; format: cell-based; conditions: serial dilution in 96-well microtiter plates, tested up to 67 µg/mL
# Experimental: as §1
# [12] = test system: Chromobacterium violaceum (DSM 30191); assay: MIC serial dilution assay; format: cell-based; conditions: serial dilution in 96-well microtiter plates, tested up to 67 µg/mL
# Experimental: as §1
# [13] = test system: Rhodotorula glutinis (DSM 10134); assay: MIC serial dilution assay; format: cell-based; conditions: serial dilution in 96-well microtiter plates, tested up to 67 µg/mL
# Experimental: as §1
# [14] = test system: Schizosaccharomyces pombe (DSM 70572); assay: MIC serial dilution assay; format: cell-based; conditions: serial dilution in 96-well microtiter plates, tested up to 67 µg/mL
# Experimental: as §1
# [15] = test system: Wickerhamomyces anomalus (DSM 6766); assay: MIC serial dilution assay; format: cell-based; conditions: serial dilution in 96-well microtiter plates, tested up to 67 µg/mL
# Experimental: as §1
# [16] = KB3.1, serial dilution in 96-well plates, read-out: IC50
# [17] = serial dilution in 96-well microtiter plates, tested up to 67 µg/mL
# [18] = Bacillus subtilis, DSM10, read-out: MIC
# [19] = Staphylococcus aureus, DSM346, serial dilution in 96-well microtiter plates, tested up to 67 µg/mL, read-out: MIC
# [20] = Candida albicans, DSM1665, read-out: MIC
# [21] = Escherichia coli, DSM1116, read-out: MIC
# [22] = Mucor hiemalis, DSM2656, read-out: MIC
# [23] = Mycolicibacterium smegmatis, ATCC700084, read-out: MIC
# [24] = Pseudomonas aeruginosa, PA14, read-out: MIC
# [25] = Homo sapiens, KB 3-1, KB3.1, serial dilution in 96-well plates, read-out: IC50
# [26] = Chromobacterium violaceum, DSM30191, read-out: MIC
compound,measurement,setting,value
"CCCC[C@H](C)[C@@H]1CC(=O)N[C@@H](C)C(=O)N[C@@H](C)C(=O)N[C@H](CC(C)C)C(=O)O1 [Compound 3, Beauveriolide S]",MIC,[1],n.i. (No inhibition up to 67 µg/mL)
same,MIC,[2]; DSM 346,66.6 µg/mL
same,MIC,[3],n.i. (No inhibition up to 67 µg/mL)
same,MIC,[4],n.i. (No inhibition up to 67 µg/mL)
same,MIC,[5],n.i. (No inhibition up to 67 µg/mL)
same,MIC,[6],n.i. (No inhibition up to 67 µg/mL)
same,MIC,[7],n.i. (No inhibition up to 67 µg/mL)
same,pIC50,Mouse fibroblast (L929),< 4.44
same,pIC50,[8]; [16],< 4.44
same,solubility in deuterated solvents,[9],insoluble
"CCCC[C@H](C)[C@@H]1CC(=O)N[C@@H](C(C)C)C(=O)N[C@@H](C)C(=O)N[C@H](CC(C)C)C(=O)O1 [Compound 5, beauveriolide M]",MIC,[1],n.i. (No inhibition up to 67 µg/mL)
same,MIC,[2]; [17],n.i. (No inhibition up to 67 µg/mL)
same,MIC,[3],n.i. (No inhibition up to 67 µg/mL)
same,MIC,[4],n.i. (No inhibition up to 67 µg/mL)
same,MIC,[6],n.i. (No inhibition up to 67 µg/mL)
same,MIC,[7],n.i. (No inhibition up to 67 µg/mL)
same,pIC50,Mouse fibroblast (L929),< 4.44
same,pIC50,[8]; [16],< 4.44
same,insecticidal activity over 7 days,[10]; total mortality,no insecticidal
"CCCC[C@H](C)[C@@H]1CC(=O)N[C@@H](Cc2c[nH]c3ccccc23)C(=O)N[C@@H](Cc2ccccc2)C(=O)N[C@H](CC(C)C)C(=O)O1 [Compound 7, beauveriolide Jb]",MIC,[1],n.i. (No inhibition up to 67 µg/mL)
same,MIC,[2]; [17],n.i. (No inhibition up to 67 µg/mL)
same,MIC,[11],n.i. (No inhibition up to 67 µg/mL)
same,MIC,[3],n.i. (No inhibition up to 67 µg/mL)
same,MIC,[12],n.i. (No inhibition up to 67 µg/mL)
same,MIC,[4],n.i. (No inhibition up to 67 µg/mL)
same,MIC,[5],n.i. (No inhibition up to 67 µg/mL)
same,MIC,[6],n.i. (No inhibition up to 67 µg/mL)
same,MIC,[7],n.i. (No inhibition up to 67 µg/mL)
same,MIC,[13],n.i. (No inhibition up to 67 µg/mL)
same,MIC,[14],n.i. (No inhibition up to 67 µg/mL)
same,MIC,[15],n.i. (No inhibition up to 67 µg/mL)
same,pIC50,Mouse fibroblast (L929),< 4.44
same,pIC50,[8],4.44
"CC(=O)c1nccc2c1[nH]c1ccccc12 [Compound 11, 1-acetyl-β-carboline]",MIC,[1]; [18],> 67 µg/mL
same,MIC,[2]; [19],> 67 µg/mL
same,MIC,[3]; [20],> 67 µg/mL
same,MIC,[4]; [21],> 67 µg/mL
same,MIC,[5]; [22],> 67 µg/mL
same,MIC,[6]; [23],> 67 µg/mL
same,MIC,[7]; [24],> 67 µg/mL
same,pIC50,Mouse fibroblast (L929); Mus musculus,< 4.44
same,pIC50,[8]; [25],< 4.44
"CC(=O)c1nc(C(=O)O)cc2c1[nH]c1ccccc12 [Compound 12, 1-acetyl-3-carboxy-β-carboline]",MIC,[1]; [18],> 67 µg/mL
same,MIC,[2]; [19],> 67 µg/mL
same,MIC,"[11]; Acinetobacter baumannii, DSM30008, read-out: MIC",> 67 µg/mL
same,MIC,[3]; [20],> 67 µg/mL
same,MIC,[12]; [26],> 67 µg/mL
same,MIC,[4]; [21],> 67 µg/mL
same,MIC,[5]; [22],> 67 µg/mL
same,MIC,[6]; [23],> 67 µg/mL
same,MIC,[7]; [24],> 67 µg/mL
same,MIC,"[13]; Rhodotorula glutinis, DSM10134, read-out: MIC",> 67 µg/mL
same,MIC,"[14]; Schizosaccharomyces pombe, DSM70572, read-out: MIC",> 67 µg/mL
same,MIC,"[15]; Hansenula anomala, DSM6766, read-out: MIC",> 67 µg/mL
same,pIC50,Mouse fibroblast (L929); Mus musculus,< 4.44
same,pIC50,[8]; [25],< 4.44
"C=C1[C@@H](C)[C@H]2[C@H](Cc3ccccc3)NC(=O)[C@]23[C@H](OC(C)=O)/C=C/[C@@](C)(O)C(=O)[C@@H](C)C/C=C/[C@H]3[C@@H]1O [cytochalasin D, reference compound]",total mortality (TM) by day 2,[10]; concentration of the value not stated,83%
"CNC(C)C1CCC(N)C(OC2C(N)CC(N)C(OC3OCC(C)(O)C(NC)C3O)C2O)O1 (stereo not shown) [gentamicin, reference compound]",MIC,[2]; [19],0.21 µg/mL
same,MIC,[12]; [26],1.7 µg/mL
same,MIC,[4]; [21],0.42 µg/mL
same,MIC,[7]; [24],0.21 µg/mL
